# Tested on: Brassica napus
# Experiment: Drought stress test on sprayed greenhouse plants, visual damage scoring (Table 3)
# Type: in vivo
# Parameters: key: reduction in damage intensity, damage assessed in %
# Settings: efficacy = reduction in damage intensity, dosage 25 g/ha, spray WP, 600 l/ha water
# Protocol: (§1) Seeds of monocotyledonous and dicotyledonous crop plants are sown in sandy loam in plastic or wood-fiber pots, covered with soil or sand and cultivated in a greenhouse under good growth conditions. The test plants are treated at the early leaf stage (BBCH10-BBCH13). To assure uniform water supply before commencement of stress, the potted plants are supplied with water by dam irrigation prior to substance application. The inventive compounds, formulated in the form of wettable powders (WP), are sprayed onto the green parts of the plants as an aqueous suspension at an equivalent water application rate of 600 I/ha with addition of 0.2% wetting agent (e.g. agrotin). Substance application is followed immediately by stress treatment of the plants. For this purpose, the wood-fiber pots are transferred in plastic inserts in order to prevent them from subsequently drying out too quickly. Drought stress is induced by gradual drying out under the following conditions: “Day”: 14 hours with illumination at 26-30° C. “Night”: 10 hours without illumination at 18-20° C. The duration of the respective stress phases is guided mainly by the condition of the stressed control plants. […] The end of the stress phase is followed by an approx. 4-14-day recovery phase, during which the plants are once again kept under good growth conditions in a greenhouse. The duration of the recovery phase is guided mainly by when the trial plants have attained a state which enables visual scoring of potential effects, and is therefore variable. […] The damage intensity is at first assessed in percent.
row,Structure (SMILES),E (BRSNS)
1,"CCOC(=O)C1CCCCN1C(=O)c1cc(Cl)c(C(F)(F)Cl)[nH]c1=O (centres unmarked) [compound 1744, 1-({5′-chloro-6′-[chloro(difluoro)methyl]-2′-oxo-1′,2′-dihydropyridin-3′-yl}carbonyl)-piperidine-2-carboxylic acid ethyl ester]",>5
2,CCc1cc(C(=O)NCC(OC)OC)c(=O)[nH]c1C(F)(F)Cl [compound 813],>5
3,C=C(C)CNC(=O)c1cc(C)c(C(F)(F)C(F)(F)F)[nH]c1=O [compound 247],>5
4,CC(C)CC(C)NC(=O)c1cc(Br)c(C(F)(Cl)C(F)(F)F)[nH]c1=O (centres unmarked) [compound 2016],>5
5,COCCNC(=O)c1cc(C)c(C(F)(F)C(F)(F)F)[nH]c1=O [compound 266],>5
6,Cc1cc(C(=O)NCC2CC2)c(=O)[nH]c1C(F)(F)C(F)(F)F [compound 233],>5
7,Cc1cc(C(=O)NC(C)CC(C)C)c(=O)[nH]c1C(F)(Cl)C(F)(F)F (centres unmarked) [compound 2246],>5
8,CCC(CC)NC(=O)c1cc(Br)c(C(F)(Cl)C(F)(F)F)[nH]c1=O (centres unmarked) [compound 2020],>5
9,Cc1cc(C(=O)NC2CC2)c(=O)[nH]c1C(F)(F)C(F)(F)F [compound 225],>5
10,CCOC(=O)C1CCCCN1C(=O)c1cc(C)c(C(F)(F)F)[nH]c1=O (centres unmarked) [compound 204],>5
11,CCc1cc(C(=O)NC(C)CN(C)C)c(=O)[nH]c1C(F)(F)C(F)(F)Cl (centres unmarked) [compound 933],>5
12,Cc1cc(C(=O)NC(C)CC(C)C)c(=O)[nH]c1C(F)(F)C(F)(F)F (centres unmarked) [compound 256],>5
13,CNC(=O)c1cc(I)c(C(F)(F)F)[nH]c1=O [compound 2220],>5
14,COCCCNC(=O)c1cc(I)c(C(F)C(F)(F)F)[nH]c1=O (centres unmarked) [compound 2233],>5
15,Cc1cc(C(=O)NC(C)C(C)C)c(=O)[nH]c1C(F)(F)C(F)(F)F (centres unmarked) [compound 258],>5

# Same assay, conditions: efficacy = reduction in damage intensity, dosage 50 g/ha, spray WP, 600 l/ha water
row,Structure (SMILES),E (BRSNS)
1,C=CCNC(=O)c1cc(Br)c(C(F)(F)F)[nH]c1=O [compound 1785],>5

# Same assay, conditions: efficacy = reduction in damage intensity, dosage 250 g/ha, spray WP, 600 l/ha water
row,Structure (SMILES),E (BRSNS)
1,CCCc1cc(C(=O)NCCCOC)c(=O)[nH]c1C(F)(F)C(F)(F)F [compound 1154],>5
2,Cc1cc(C(=O)NC(C)C(F)(F)F)c(=O)[nH]c1C(F)(F)C(F)(F)C(F)(F)F (centres unmarked) [compound 2251],>5
3,COCCNC(=O)c1cc(C)c(C)[nH]c1=O [compound 46],>5
4,"CCCC(C)NC(=O)c1cc(C)c(C)[nH]c1=O (centres unmarked) [compound 32, 5,6-Dimethyl-2-oxo-N-(pentan-2-yl)-1,2-dihydropyridine3-carboxamide]",>5
5,CCC(C)NC(=O)c1cc(C)c(C)[nH]c1=O (centres unmarked) [compound 29],>5
6,CC(C)C(C)NC(=O)c1cc(Cl)c(C(F)(F)Cl)[nH]c1=O (centres unmarked) [compound 1688],>5
7,C=CCNC(=O)c1cc(Cl)c(C(F)(F)C(F)(F)Cl)[nH]c1=O [compound 1565],>5
8,Cc1cc(C(=O)NCC2CC2)c(=O)[nH]c1C [compound 13],>5
9,"CCc1cc(C(=O)NC2CC2)c(=O)[nH]c1C(F)(F)C(F)(F)F [compound 665, N-Cyclopropyl-5-ethyl-2-oxo-6-(pentafluoroethyl)-1,2-dihydropyridine-3-carboxamide]",>5

# Tested on: Triticum aestivum
# Experiment: Drought stress test on sprayed greenhouse plants, visual damage scoring (Table 4)
# Type: in vivo
# Settings: efficacy = reduction in damage intensity, dosage 25 g/ha, spray WP, 600 l/ha water
# Protocol: as §1
row,Structure (SMILES),E (TRZAS)
1,COCC(C)NC(=O)c1cc(C)c(C(F)(F)C(F)(F)F)[nH]c1=O (centres unmarked) [compound 272],>5
2,CCc1[nH]c(=O)c(C(=O)NCCC(C)C)cc1Cl [compound 3170],>5
3,CCCc1[nH]c(=O)c(C(=O)NCC)cc1Cl [compound 3699],>5
4,COCCNC(=O)c1cc(C)c(C(F)(F)C(F)(F)F)[nH]c1=O [compound 266],>5
5,CCNC(=O)c1cc(Cl)c(CC)[nH]c1=O [compound 3149],>5
6,CCc1cc(C(=O)N(C)CC(=O)OC)c(=O)[nH]c1C(F)(F)C(F)(F)F [compound 770],>5
7,CCCc1[nH]c(=O)c(C(=O)NCCC(C)C)cc1I [compound 3940],>5
8,CCCc1[nH]c(=O)c(C(=O)N(C)CC(=O)OC)cc1Br [compound 3807],>5
9,CCCNC(=O)c1cc(I)c(CCC)[nH]c1=O [compound 3920],>5
10,CCCc1[nH]c(=O)c(C(=O)NC(C)COC)cc1CC (centres unmarked) [compound 3639],>5
11,CCCc1[nH]c(=O)c(C(=O)N(C)CC(=O)OC)cc1I [compound 3917],>5

# Same assay, conditions: efficacy = reduction in damage intensity, dosage 250 g/ha, spray WP, 600 l/ha water
row,Structure (SMILES),E (TRZAS)
1,COCCCNC(=O)c1cc(C)c(C(F)(F)C(F)(F)F)[nH]c1=O [compound 274],>5
2,COC(=O)CN(C)C(=O)c1cc(C)c(C)[nH]c1=O [compound 4027],>5
3,CCc1[nH]c(=O)c(C(=O)NCCC(C)C)cc1C [compound 2840],>5
4,CCc1cc(C(=O)NC(C)CN(C)C)c(=O)[nH]c1C(F)(F)C(F)(F)Cl (centres unmarked) [compound 933],>5
5,Cc1cc(C(=O)NCCC(C)C)c(=O)[nH]c1C(F)(F)C(F)(F)F [compound 243],>5

# Tested on: Zea mays (corn)
# Experiment: Drought stress test on sprayed greenhouse plants, visual damage scoring (Table 2)
# Type: in vivo
# Parameters: key: reduction in damage intensity, damage assessed in %
# Settings: efficacy = reduction in damage intensity, dosage 2.5 g/ha, spray WP, 600 l/ha water
# Protocol: as §1
row,Structure (SMILES),E (ZEAMX)
1,COCCNC(=O)c1cc(Br)c(C)[nH]c1=O [compound 2423],>5

# Same assay, conditions: efficacy = reduction in damage intensity, dosage 25 g/ha, spray WP, 600 l/ha water
row,Structure (SMILES),E (ZEAMX)
1,COCCNC(=O)c1cc(C)c(C)[nH]c1=O [compound 46],>5
2,COCCNC(=O)c1cc(C)c(C(F)(F)C(F)(F)F)[nH]c1=O [compound 266],>5
3,CCCNC(=O)c1cc(C)c(C(F)(F)C(F)(F)F)[nH]c1=O [compound 223],>5
4,CCCc1[nH]c(=O)c(C(=O)NCCC(C)C)cc1I [compound 3940],>5
5,CCc1cc(C(=O)NCC(=O)OC)c(=O)[nH]c1C(F)(F)F [compound 610],>5
6,CCCNC(=O)c1cc(Cl)c(C)[nH]c1=O [compound 2270],>5
7,CCCNC(=O)c1cc(I)c(CCC)[nH]c1=O [compound 3920],>5
8,COC(=O)CNC(=O)c1cc(C)c(C)[nH]c1=O [compound 59],>5
9,CCc1cc(C(=O)NC2CCC2)c(=O)[nH]c1C(F)(F)Cl [compound 777],>5
10,CCc1cc(C(=O)NC(C)C)c(=O)[nH]c1C(F)(F)C(F)(F)F [compound 664],>5
11,CCNC(=O)c1cc(Cl)c(C(F)(F)F)[nH]c1=O [compound 1212],>5
12,CCc1cc(C(=O)NC(C)CC(C)C)c(=O)[nH]c1C(F)(F)C(F)(F)F (centres unmarked) [compound 696],>5
13,CCc1[nH]c(=O)c(C(=O)N(C)CC(=O)OC)cc1C [compound 2817],>5

# Same assay, conditions: efficacy = reduction in damage intensity, dosage 250 g/ha, spray WP, 600 l/ha water
row,Structure (SMILES),E (ZEAMX)
1,CCNC(=O)c1cc(C)c(C(F)(F)C(F)(F)F)[nH]c1=O [compound 222],>5
2,CN(C)C(=O)c1cc(Br)c(C(F)(Cl)C(F)(F)F)[nH]c1=O (centres unmarked) [compound 2085],>5
3,CNC(=O)c1cc(C)c(C(F)(F)C(F)(F)F)[nH]c1=O [compound 221],>5
4,CCCNC(=O)c1cc(C)c(C)[nH]c1=O [compound 3],>5
5,Cc1[nH]c(=O)c(C(=O)NCCC(C)C)cc1Cl [compound 2290],>5
6,Cc1cc(C(=O)NC(C)CC(C)C)c(=O)[nH]c1C (centres unmarked) [compound 36],>5
7,"Cc1cc(C(=O)N(C)c2ccccc2)c(=O)[nH]c1C(F)(F)F [compound 219, N,5-Dimethyl-2-oxo-N-phenyl-6-(trifluoromethyl)-1,2-dihydropyridine-3-carboxamide]",>5
8,CCCc1cc(C(=O)NCC(=O)OC)c(=O)[nH]c1C(F)(F)C(F)(F)F [compound 1159],>5
9,CC(C)C(C)NC(=O)c1cc(Cl)c(C(F)(F)C(F)(F)Cl)[nH]c1=O (centres unmarked) [compound 1578],>5
10,Cc1cc(C(=O)NCC(=O)O)c(=O)[nH]c1C(F)(F)F [compound 170],>5
